Data on three compounds can be found in patent US20060035942A1, “Fungicidal combinations of active substances” (priority 2002, published 2006).

The assay relates to Pyrenophora teres. Briefly: Pyrenophora teres test (barley)/curative. Format: in vivo. The following applies: curative, application rate 100 g/ha, evaluation 7 days after inoculation. As to the method: Pyrenophora teres Test (Barley)/Curative • Solvent: 25 parts by weight of N,N-dimethylacetamide • Emulsifier: 0.6 part by weight of alkylaryl polyglycol ether To produce a suitable preparation of active compound, 1 part by weight of active compound is mixed with the stated amounts of solvent and emulsifier, and the concentrate is diluted with water to the desired concentration. To test for curative activity, young plants are sprayed with a conidia suspension of Pyrenophora teres. The plants remain in an incubation cabin at 20° C. and 100% relative atmospheric humidity for 48 hours. The plants are then sprayed with the preparation of active compound at the stated application rate. The plants are placed in a greenhouse at a temperature of about 20° C. and a relative atmospheric humidity of about 80%. Evaluation is carried out 7 days after the inoculation. 0% means an efficacy which corresponds to that of the control, whereas an efficacy of 100% means that no infection is observed.
As to `CON=C(C(=O)OC)c1ccccc1CO/N=C(\C)c1cccc(C(F)(F)F)c1` [Ex. (I)], the Efficacy in % was determined as 67%.

As for `OC(Cc1ccccc1Cl)(Cn1nc[nH]c1=S)C1(Cl)CC1` (stereo not drawn) [Ex. (II)], the Efficacy in % came out at 56%.

Consider `CC(C)(C)C(O)(CCc1ccc(Cl)cc1)Cn1cncn1` (stereo not drawn) [Ex. (III)], for which the Efficacy in % came out at 22%.
